Test results published in ChEMBL document CHEMBL1770088, “Orally bioavailable imidazoazepanes as calcitonin gene-related peptide (CGRP) receptor antagonists: discovery of MK-2918” (Bioorg Med Chem Lett, 2011).
Values after ≈ are worked out from the molar mass of the structure shown.

What was measured:
[1] = target: T1, Calcitonin gene-related peptide type 1 receptor (Homo sapiens, UniProt O60894+Q16602); test: Displacement of [125I]-CGRP from human recombinant CGRP receptor
[2] = target: T1, Calcitonin gene-related peptide type 1 receptor; test: Antagonist activity at CGRP receptor assessed as inhibition of CGRP-stimulated cAMP production by cell based assay in presence of 50% human serum; format: functional
[3] = Apparent permeability of compound; format: ADME; conditions: not told
[4] = target: T1, Calcitonin gene-related peptide type 1 receptor; test: Antagonist activity at CGRP receptor assessed as inhibition of CGRP-stimulated cAMP production by cell based assay; format: functional
[5] = Oral bioavailability in rat at 10 mg/kg, po administered as a suspension in 1% aqueous methylcellulose; format: ADME, organism-based; conditions: in vivo
[6] = species on record: Homo sapiens; test: Ratio of IC50 for inhibition of [35S]-MK-499 binding to human ERG channel to IC50 for inhibition of cell based CGRP-stimulated cAMP production
[7] = system: Rhesus monkey; test: Inhibition of capsaicin-induced dermal vasodilation in orally dosed rhesus monkey; format: functional, Macaca mulatta
[8] = system: Rhesus monkey; test: Oral bioavailability in rhesus monkey assessed as N-((6S,9R)-6-(2,3-difluorophenyl)-3-(2-hydroxypropan-2-yl)-6,7,8,9-tetrahydro-5H-imidazo[1,2-a]azepin-9-yl)-2'-oxo-1',2'-dihydrospiro[piperidine-4,4'-pyrido[2,3-d][1,3]oxazine]-1-carboxamide at 10 mg/kg, po or iv normalized to AUC; format: ADME, organism-based, Macaca mulatta; conditions: in vivo
[9] = Aqueous solubility of the compound at pH 3; format: physicochemical; conditions: buffer
[10] = system: Rattus norvegicus; test: Oral bioavailability in rat assessed as N-((6S,9R)-6-(2,3-difluorophenyl)-3-(2-hydroxypropan-2-yl)-6,7,8,9-tetrahydro-5H-imidazo[1,2-a]azepin-9-yl)-2'-oxo-1',2'-dihydrospiro[piperidine-4,4'-pyrido[2,3-d][1,3]oxazine]-1-carboxamide at 10 mg/kg, po or iv normalized to AUC; format: ADME, organism-based; conditions: in vivo
[11] = Oral bioavailability in dog at 10 mg/kg, po; format: ADME, organism-based, Canis lupus familiaris; conditions: in vivo
[12] = system: Canis familiaris; test: Oral bioavailability in dog assessed as N-((6S,9R)-6-(2,3-difluorophenyl)-3-(2-hydroxypropan-2-yl)-6,7,8,9-tetrahydro-5H-imidazo[1,2-a]azepin-9-yl)-2'-oxo-1',2'-dihydrospiro[piperidine-4,4'-pyrido[2,3-d][1,3]oxazine]-1-carboxamide at 10 mg/kg, po or iv normalized to AUC; format: ADME, organism-based, Canis lupus familiaris; conditions: in vivo
[13] = Oral bioavailability in rhesus monkey at 10 mg/kg, po; format: ADME, organism-based, Macaca mulatta; conditions: in vivo
[14] = Aqueous solubility of the compound at pH 7.4; conditions: buffer
[15] = Oral bioavailability in rat at 10 mg/kg, po administered as a solution in 1:1 imwitor:tween; format: ADME, organism-based; conditions: in vivo

T1 sequence (Q16602 whole entry, one chain of several): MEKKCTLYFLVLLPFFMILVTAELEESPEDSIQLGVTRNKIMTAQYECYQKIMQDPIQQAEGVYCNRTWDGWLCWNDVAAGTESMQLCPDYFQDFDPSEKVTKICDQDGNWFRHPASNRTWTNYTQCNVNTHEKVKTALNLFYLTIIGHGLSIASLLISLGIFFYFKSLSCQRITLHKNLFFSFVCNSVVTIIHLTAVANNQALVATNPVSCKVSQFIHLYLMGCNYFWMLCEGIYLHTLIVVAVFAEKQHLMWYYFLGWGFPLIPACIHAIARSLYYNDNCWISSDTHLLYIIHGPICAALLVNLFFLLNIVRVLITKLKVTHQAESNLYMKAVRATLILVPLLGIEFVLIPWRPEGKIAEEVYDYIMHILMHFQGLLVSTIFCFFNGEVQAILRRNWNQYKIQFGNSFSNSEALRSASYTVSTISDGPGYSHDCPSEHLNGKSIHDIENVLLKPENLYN

Ki [1] [nM]	IC50 [2] [nM]	IC50 [4] [nM]	bioavailability [5] [%]	SMILES	Ratio IC50 [6]	also measured
0.14	2.6	0.37	35	O=C(N[C@@H]1CC[C@@H](c2cccc(F)c2F)Cn2c(CC(F)(F)F)cnc21)N1CCC(n2c(=O)[nH]c3ncccc32)CC1		Papp [3]: 24 ×10⁻⁶ cm/s
3.9	33	7.2		O=C(N[C@@H]1CC[C@@H](c2cccc(F)c2F)Cn2cc(CC(F)(F)F)nc21)N1CCC(n2c(=O)[nH]c3ncccc32)CC1		
0.19	1.3	0.83	< 1	O=C1Nc2ncccc2C2(CCN(C(=O)N[C@@H]3CC[C@@H](c4cccc(F)c4F)Cn4c(CC(F)(F)F)nnc43)CC2)O1	> 36000	
0.29	1.5	0.86	3	CC(C)(O)c1cnc2n1C[C@H](c1cccc(F)c1F)CC[C@H]2NC(=O)N1CCC2(CC1)OC(=O)Nc1ncccc12	23000	EC90 [7]: 330 nM
2.8	7.4	4.1		CN(C)C(=O)c1cnc2n1C[C@H](c1cccc(F)c1F)CC[C@H]2NC(=O)N1CCC(n2c(=O)[nH]c3ncccc32)CC1		
3.1	19	6.7		O=C(N[C@@H]1CC[C@@H](c2cccc(F)c2F)Cn2ccnc21)N1CCC(n2c(=O)[nH]c3ncccc32)CC1		
0.05	0.63	0.24	16	COC(C)(C)c1cnc2n1C[C@H](c1cccc(F)c1F)CC[C@H]2NC(=O)N1CCC2(CC1)OC(=O)Nc1ncccc12	32000	F [8]: 29%; Papp [3]: 24 ×10⁻⁶ cm/s; solubility [9]: 1100 µg/mL (≈ 1890 µM); F [10]: 26%; bioavailability [11]: 10%; F [12]: 14%; bioavailability [13]: 5%
5.7	15	12		CNCCc1cnc2n1C[C@H](c1cccc(F)c1F)CC[C@H]2NC(=O)N1CCC(n2c(=O)[nH]c3ncccc32)CC1		
				O=C(N[C@@H]1CC[C@@H](c2cccc(F)c2F)CN(CC(F)(F)F)C1=O)N1CCC(n2c(=O)[nH]c3ncccc32)CC1 [TELCAGEPANT]		solubility [14]: 30 µg/mL (≈ 53 µM); Papp [3]: 21 ×10⁻⁶ cm/s
4	28	8.7		Cc1cn2c(n1)[C@H](NC(=O)N1CCC(n3c(=O)[nH]c4ncccc43)CC1)CC[C@@H](c1cccc(F)c1F)C2		
0.62	4.3	1.7		COCc1cnc2n1C[C@H](c1cccc(F)c1F)CC[C@H]2NC(=O)N1CCC2(CC1)C(=O)Nc1ncccc12	9500	bioavailability [15]: 21%
1.1	34	2.6		O=C(N[C@@H]1CC[C@@H](c2cccc(F)c2F)Cn2c(-c3ccccc3)cnc21)N1CCC(n2c(=O)[nH]c3ncccc32)CC1		
0.039	0.42	0.25		CCC(CC)(OC)c1cnc2n1C[C@H](c1cccc(F)c1F)CC[C@H]2NC(=O)N1CCC2(CC1)OC(=O)Nc1ncccc12	3200	
2.5	12	7.9		O=C(N[C@@H]1CC[C@@H](c2cccc(F)c2F)Cn2c(CO)cnc21)N1CCC(n2c(=O)[nH]c3ncccc32)CC1		
0.14	1.7	0.61	15	COCc1cnc2n1C[C@H](c1cccc(F)c1F)CC[C@H]2NC(=O)N1CCC2(CC1)OC(=O)Nc1ncccc12	8900	
0.036	0.76	0.21	8	CC1(c2cnc3n2C[C@H](c2cccc(F)c2F)CC[C@H]3NC(=O)N2CCC3(CC2)OC(=O)Nc2ncccc23)CCCO1 (some centres not stated)	17000	
0.61	4	0.94	47	O=C(N[C@@H]1CC[C@@H](c2cccc(F)c2F)Cn2c(CC(F)(F)F)cnc21)N1CCC2(CC1)C(=O)Nc1ncccc12	9300	
0.4	1.4	0.82		COC(C)(C)c1cnc2n1C[C@H](c1cccc(F)c1F)CC[C@H]2NC(=O)N1CCC2(CC1)C(=O)Nc1ncccc12	9700	bioavailability [15]: 5%
0.48	2.7	2.3		O=C(N[C@@H]1CC[C@@H](c2cccc(F)c2F)Cn2c(CC(F)(F)F)nnc21)N1CCC2(CC1)C(=O)Nc1ncccc12	> 13000	bioavailability [15]: 6%
0.07	2	0.41	33	O=C1Nc2ncccc2C2(CCN(C(=O)N[C@@H]3CC[C@@H](c4cccc(F)c4F)Cn4c(CC(F)(F)F)cnc43)CC2)O1		bioavailability [11]: 28%; EC90 [7]: 1000 nM; bioavailability [13]: 17%
3.2	26	12		O=C(N[C@@H]1CC[C@@H](c2cccc(F)c2F)Cn2cc(CO)nc21)N1CCC(n2c(=O)[nH]c3ncccc32)CC1		
1.1	64	3.6		O=C(N[C@@H]1CC[C@@H](c2cccc(F)c2F)Cn2c(-c3nccs3)cnc21)N1CCC(n2c(=O)[nH]c3ncccc32)CC1		
2.2	12	4.1		Cc1cnc2n1C[C@H](c1cccc(F)c1F)CC[C@H]2NC(=O)N1CCC(n2c(=O)[nH]c3ncccc32)CC1		
0.69	3.2	0.62		CC(C)c1cnc2n1C[C@H](c1cccc(F)c1F)CC[C@H]2NC(=O)N1CCC(n2c(=O)[nH]c3ncccc32)CC1		
0.16	13	0.65		CC(C)(OCC(F)(F)F)c1cnc2n1C[C@H](c1cccc(F)c1F)CC[C@H]2NC(=O)N1CCC2(CC1)OC(=O)Nc1ncccc12	6100	
0.63	8.6	1.4		O=C(N[C@@H]1CC[C@@H](c2cccc(F)c2F)Cn2c(C3(C(F)(F)F)CC3)cnc21)N1CCC2(CC1)C(=O)Nc1ncccc12	880	
0.05	2.9	0.32		CCOC(C)(C)c1cnc2n1C[C@H](c1cccc(F)c1F)CC[C@H]2NC(=O)N1CCC2(CC1)OC(=O)Nc1ncccc12	23000	
1	2.4	1.6	2	O=C(N[C@@H]1CC[C@@H](c2cccc(F)c2F)Cn2c(C3CC3)nnc21)N1CCC(n2c(=O)[nH]c3ncccc32)CC1		Papp [3]: 4 ×10⁻⁶ cm/s
0.04	0.61	0.31		COC(C)(C)c1cnc2n1C[C@H](c1cccc(F)c1F)CC[C@H]2NC(=O)N1CCC(n2c(=O)[nH]c3ncccc32)CC1		
0.38	1.9	0.63		COCc1cnc2n1C[C@H](c1cccc(F)c1F)CC[C@H]2NC(=O)N1CCC(n2c(=O)[nH]c3ncccc32)CC1		
